The test system of data set [1] is Human immunodeficiency virus 1. In words: Anti-HIV activity against HIV-1 IIIB infected in human MT4 cells assessed as reduction in virus-induced cytopathic effect incubated for 5 days by MTT assay. The class given is functional, organism-based. As to conditions: Human immunodeficiency virus 1, IIIB, MT4, 120 h. For orientation: Cytopathic effects are the visible damage that an infection or toxin causes in cultured cells.

Data set [2] has as its system Human immunodeficiency virus 2. The data set is described as follows: Anti-HIV activity against HIV2 ROD infected in human MT4 cells assessed as reduction in virus-induced cytopathic effect incubated for 5 days by MTT assay. It counts as functional, organism-based. The conditions noted are these: Human immunodeficiency virus 2, ROD, MT4, 120 h.
Data set [3] concerns MT4. The data set is described as follows: Cytotoxicity against human MT4 cells assessed as reduction in cell viability incubated for 5 days by MTT assay. The conditions noted are these: Homo sapiens, MT4, 120 h. It counts as cell-based. (In general: Tetrazolium dyes change colour on reduction, which living cells bring about.)
In data set [4] the test system is Human immunodeficiency virus 1. In words: Antiviral activity against HIV1 harboring reverse transcriptase L100I mutant infected in human MT4 cells assessed as protection against virus-induced cytopathic effect incubated for 5 days by MTT assay. The class given is functional, organism-based. As to conditions: Human immunodeficiency virus 1, MT4, 120 h.
In data set [5] the test system is Human immunodeficiency virus 1. In words: Antiviral activity against HIV1 harboring reverse transcriptase K103N mutant infected in human MT4 cells assessed as protection against virus-induced cytopathic effect incubated for 5 days by MTT assay. It counts as functional, organism-based. As to conditions: Human immunodeficiency virus 1, MT4, 120 h.
The subject of data set [6] is Human immunodeficiency virus 1. In words: Antiviral activity against HIV1 harboring reverse transcriptase Y181C mutant infected in human MT4 cells assessed as protection against virus-induced cytopathic effect incubated for 5 days by MTT assay. The conditions noted are these: Human immunodeficiency virus 1, MT4, 120 h. The class given is functional, organism-based.

Data set [7] relates to Human immunodeficiency virus 1. The data set is described as follows: Antiviral activity against HIV1 harboring reverse transcriptase Y188L mutant infected in human MT4 cells assessed as protection against virus-induced cytopathic effect incubated for 5 days by MTT assay. It counts as functional, organism-based. The conditions noted are these: Human immunodeficiency virus 1, MT4, 120 h.

The test system of data set [8] is Human immunodeficiency virus 1. In words: Antiviral activity against HIV1 harboring reverse transcriptase E138K mutant infected in human MT4 cells assessed as protection against virus-induced cytopathic effect incubated for 5 days by MTT assay. As to conditions: Human immunodeficiency virus 1, MT4, 120 h. The class given is functional, organism-based.
The test system of data set [9] is Human immunodeficiency virus 1. The data set is described as follows: Antiviral activity against HIV1 harboring reverse transcriptase F227L/V106A mutant infected in human MT4 cells assessed as protection against virus-induced cytopathic effect incubated for 5 days by MTT assay. The class given is functional, organism-based. As to conditions: Human immunodeficiency virus 1, MT4, 120 h.

Data set [10] in a line: Resistance fold, ratio of EC50 for HIV1 harboring reverse transcriptase Y181C mutant […] to EC50 for wild type HIV1 […]. The class given is functional.
Data set [11] can be described thus: Resistance fold, ratio of EC50 for HIV1 harboring reverse transcriptase L100I mutant […] to EC50 for wild type HIV1 […]. The class given is functional.
The nature of data set [12]: Resistance fold, ratio of EC50 for HIV1 harboring reverse transcriptase K103N mutant […] to EC50 for wild type HIV1 […]. The class given is functional.
Data set [13] has as its system Human immunodeficiency virus 1. The data set is described as follows: Antiviral activity against HIV1 harboring reverse transcriptase K103N/Y181C double mutant infected in human MT4 cells assessed as protection against virus-induced cytopathic effect incubated for 5 days by MTT assay. The class given is functional, organism-based. As to conditions: Human immunodeficiency virus 1, MT4, 120 h.

Data set [14] can be described thus: Selectivity index, ratio of CC50 for cytotoxicity against human MT4 cells to EC50 of Anti-HIV activity against HIV-1 IIIB infected in human MT4. It counts as toxicity, cell-based. As to conditions: read-out: Selectivity Index.
A short description of data set [15]: Resistance fold, ratio of EC50 for HIV1 harboring reverse transcriptase Y188L mutant […] to EC50 for wild type HIV1 […]. The class given is functional.
Data set [16] in a line: Resistance fold, ratio of EC50 for HIV1 harboring reverse transcriptase E138K mutant […] to EC50 for wild type HIV1 […]. It counts as functional.
Data set [17] in a line: Resistance fold, ratio of EC50 for HIV1 harboring reverse transcriptase F227L/V106A double mutant […] to EC50 for wild type HIV1 […]. The class given is functional.
The nature of data set [18]: Resistance fold, ratio of EC50 for HIV1 harboring reverse transcriptase K103N/Y181C double mutant […] to EC50 for wild type HIV1 […]. It counts as functional.
Data set [19] deals with Human immunodeficiency virus type 1 reverse transcriptase (Human immunodeficiency virus 1, UniProt Q72547). The data set is described as follows: Inhibition of wild type HIV1 reverse transcriptase using oligo(dT)16 as primer measured after 40 mins by picogreen-dye based spectrofluorimetric analysis.

pEC50, pIC50: −log10 of the molar value.

We go through one molecule from ChEMBL document CHEMBL5036347, “Design of the naphthyl-diarylpyrimidines as potent non-nucleoside reverse transcriptase inhibitors (NNRTIs) via structure-based extension into the entrance channel” (Eur J Med Chem, 2021).

`CCC(C)CNc1cc(Oc2c(OC)cc3cc(C#N)ccc3c2OC)nc(Nc2ccc(C#N)cc2)n1` (centres undefined): the negative-log EC50 (pEC50) – broadly, the negative decadic logarithm of the EC50, by convention in mol/L – is 7.16 in data set [1]; below 3.00 in [2]; 5.61 in data set [4]; 7.22 in data set [5]; 6.17 in [6]; 5.21 in data set [7]. For the same molecule, the pEC50 was 6.55 in data set [8], below 3.00 in data set [9] and 4.83 in [13]. Moreover, the values for the negative logarithm of the IC50 (pIC50) in [3] and in data set [19] were below 3.90 and 6.57, respectively. Besides, the “Ratio EC50” value in data set [10] was 10; in data set [11] it was 36; in [12] it was 1; in data set [15], 89; in data set [16], 4; in data set [17] it was above 14450. Further, the “Ratio EC50” value in data set [18] worked out at 216. For the same molecule, the selectivity ratio in data set [14] was above 3550.
